# Target: KRAS G12C and cRAF (Ras-binding domain) interaction (Homo sapiens (Human), UniProt P01116, C118S/C51S/C80L/G12C)
# Experiment: Inhibition of KRAS G12C and cRAF binding (AlphaScreen)
# Conditions: not given
# Summary of the method: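 Compounds (DMSO) preincubated 19-20 h at room temperature, then RBD with streptavidin donor and glutathione acceptor beads added in 25 mM Hepes pH 7.4, 150 mM NaCl, 5 mM MgCl2, 0.01% Triton X-100, 2% DMSO for 60-90 min. Emission 570 nm (excitation 680 nm); IC50 by 4-parameter fit. Counter-screen used biotin-AviTag-GST instead of RBD.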
# KRAS G12C and cRAF (Ras-binding domain) interaction, sequence (P01116 other isoform, or with tags, fused parts or gaps G12C/C51S/C80L/C118S): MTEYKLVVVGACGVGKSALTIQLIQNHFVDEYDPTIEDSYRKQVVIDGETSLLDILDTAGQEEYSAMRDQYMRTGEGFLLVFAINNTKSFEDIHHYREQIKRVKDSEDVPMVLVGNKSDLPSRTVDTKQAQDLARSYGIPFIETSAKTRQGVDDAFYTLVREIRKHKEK
row,IC50 [nM],SMILES
1,10 to 100,"C=CC(=O)N1CC[C@@H](N(CC(F)F)c2nc(OC[C@@]34CCCN3C[C@H](F)C4)nc3c(F)c(-c4cccc5cccc(Cl)c45)ncc23)C1 [Example 194, 1-((R)-3-((7-(8-chloronaphthalen-1-yl)-8-fluoro-2-(((2R,7aS)-2-fluorotetrahydro-1H-pyrrolizin-7a(5H)-yl)methoxy)pyrido[4,3-d]pyrimidin-4-yl)(2,2-difluoroethyl)amino)pyrrolidin-1-yl)prop-2-en-1-one]"

# Same assay, conditions: GMPPNP-loaded KRAS G12C, 19-20 hours incubation with compound; read-out: IC50 (Inhibition of KRAS G12C and cRAF Binding)
row,IC50 [nM],SMILES
1,100 to 500,"C=CC(=O)N1C[C@H](C)[C@@H](N(C)c2nc(OC[C@@]34CCCN3C[C@H](F)C4)nc3c(F)c(-c4cccc5cccc(Cl)c45)ncc23)C1 [Example 189, 1-((3R,4S)-3-((7-(8-chloronaphthalen-1-yl)-8-fluoro-2-(((2R,7aS)-2-fluorotetrahydro-1H-pyrrolizin-7a(5H)-yl)methoxy)pyrido[4,3-d]pyrimidin-4-yl)(methyl)amino)-4-methylpyrrolidin-1-yl)prop-2-en-1-one]"
2,100 to 500,"C=CC(=O)N1CC[C@@H](Nc2nc(OC[C@@]34CCCN3C[C@H](F)C4)nc3c(F)c(-c4cccc5cccc(Cl)c45)ncc23)[C@H]1C [Example 190, 1-((2R,3R)-3-((7-(8-chloronaphthalen-1-yl)-8-fluoro-2-(((2R,7aS)-2-fluorotetrahydro-1H-pyrrolizin-7a(5H)-yl)methoxy)pyrido[4,3-d]pyrimidin-4-yl)amino)-2-methylpyrrolidin-1-yl)prop-2-en-1-one]"
3,10 to 100,"C=CC(=O)N1CC[C@@H](N(C)c2nc(OC[C@@]34CCCN3C[C@H](F)C4)nc3c(F)c(-c4cccc5ccc(F)c(F)c45)ncc23)C1 [Example 192, 1-((R)-3-((7-(7,8-difluoronaphthalen-1-yl)-8-fluoro-2-(((2R,7aS)-2-fluorotetrahydro-1H-pyrrolizin-7a(5H)-yl)methoxy)pyrido[4,3-d]pyrimidin-4-yl)(methyl)amino)pyrrolidin-1-yl)prop-2-en-1-one]"
4,10 to 100,"CN(c1nc(OC[C@@]23CCCN2C[C@H](F)C3)nc2c(F)c(-c3cccc4cccc(Cl)c34)ncc12)[C@@H]1CCN(C(=O)C#C[C@]2(C)CCCN2C)C1 [Example 193, 1-((R)-3-((7-(8-chloronaphthalen-1-yl)-8-fluoro-2-(((2R,7aS)-2-fluorohexahydro-1H-pyrrolizin-7a-yl)methoxy)pyrido[4,3-d]pyrimidin-4-yl)(methyl)amino)pyrrolidin-1-yl)-3-((S)-1,2-dimethylpyrrolidin-2-yl)prop-2-yn-1-one]"
5,10 to 100,"C=CC(=O)N1CC[C@@H](N(C)c2nc(OC[C@@]34CCCN3C[C@H](F)C4)nc3c(F)c(-c4cccc5ccc(F)c(C)c45)ncc23)C1 [Example 195, 1-((R)-3-((8-fluoro-7-(7-fluoro-8-methylnaphthalen-1-yl)-2-(((2R,7aS)-2-fluorotetrahydro-1H-pyrrolizin-7a(5H)-yl)methoxy)pyrido[4,3-d]pyrimidin-4-yl)(methyl)amino)pyrrolidin-1-yl)prop-2-en-1-one]"
6,10 to 100,"CCc1c(F)ccc2cccc(-c3ncc4c(N(C)[C@@H]5CCN(C(=O)/C=C/[C@H]6CCN6C)C5)nc(OC[C@@]56CCCN5C[C@H](F)C6)nc4c3F)c12 [Example 196, (E)-1-((R)-3-((7-(8-ethyl-7-fluoronaphthalen-1-yl)-8-fluoro-2-(((2R,7aS)-2-fluorotetrahydro-1H-pyrrolizin-7a(5H)-yl)methoxy)pyrido[4,3-d]pyrimidin-4-yl)(methyl)amino)pyrrolidin-1-yl)-3-((R)-1-methylazetidin-2-yl)prop-2-en-1-one]"
7,10 to 100,"CN(c1nc(OC[C@@]23CCCN2C[C@H](F)C3)nc2c(F)c(-c3cccc4cccc(Cl)c34)ncc12)[C@@H]1CCN(C(=O)C#C[C@@]2(C)CCCN2C)C1 [Example 197, 1-((R)-3-((7-(8-chloronaphthalen-1-yl)-8-fluoro-2-(((2R,7aS)-2-fluorohexahydro-1H-pyrrolizin-7a-yl)methoxy)pyrido[4,3-d]pyrimidin-4-yl)(methyl)amino)pyrrolidin-1-yl)-3-((R)-1,2-dimethylpyrrolidin-2-yl)prop-2-yn-1-one]"
8,10 to 100,"Cc1c(F)ccc2cccc(-c3ncc4c(N(C)[C@@H]5CCN(C(=O)/C=C/CN(C)C)C5)nc(OC[C@@]56CCCN5C[C@H](F)C6)nc4c3F)c12 [Example 202, (E)-4-(dimethylamino)-1-((R)-3-((8-fluoro-7-(7-fluoro-8-methylnaphthalen-1-yl)-2-(((2R,7aS)-2-fluorotetrahydro-1H-pyrrolizin-7a(5H)-yl)methoxy)pyrido[4,3-d]pyrimidin-4-yl)(methyl)amino)pyrrolidin-1-yl)but-2-en-1-one]"
9,10 to 100,"Cc1cc(/C=C/C(=O)N2CC[C@@H](N(C)c3nc(OC[C@@]45CCCN4C[C@H](F)C5)nc4c(F)c(-c5cccc6ccc(F)c(F)c56)ncc34)C2)nc(C)n1 [Example 203, (E)-1-((R)-3-((7-(7,8-difluoronaphthalen-1-yl)-8-fluoro-2-(((2R,7aS)-2-fluorohexahydro-1H-pyrrolizin-7a-yl)methoxy)pyrido[4,3-d]pyrimidin-4-yl)(methyl)amino)pyrrolidin-1-yl)-3-(2,6-dimethylpyrimidin-4-yl)prop-2-en-1-one]"
10,100 to 500,"Cc1cc(/C=C/C(=O)N2CC[C@@H](N(C)c3nc(OC[C@@]45CCCN4C[C@H](F)C5)nc4c(F)c(-c5cccc6cccc(Cl)c56)ncc34)C2)nc(C)n1 [Example 204, (E)-1-((R)-3-((7-(8-chloronaphthalen-1-yl)-8-fluoro-2-(((2R,7aS)-2-fluorohexahydro-1H-pyrrolizin-7a-yl)methoxy)pyrido[4,3-d]pyrimidin-4-yl)(methyl)amino)pyrrolidin-1-yl)-3-(2,6-dimethylpyrimidin-4-yl)prop-2-en-1-one]"
11,10 to 100,"Cc1c(F)ccc2cccc(-c3ncc4c(N(C)[C@@H]5CCN(C(=O)/C=C/[C@H]6CCN6C)C5)nc(OC[C@@]56CCCN5C[C@H](F)C6)nc4c3F)c12 [Example 206, (E)-1-((R)-3-((8-fluoro-7-(7-fluoro-8-methylnaphthalen-1-yl)-2-(((2R,7aS)-2-fluorotetrahydro-1H-pyrrolizin-7a(5H)-yl)methoxy)pyrido[4,3-d]pyrimidin-4-yl)(methyl)amino)pyrrolidin-1-yl)-3-((R)-1-methylazetidin-2-yl)prop-2-en-1-one]"
12,10 to 100,"C#Cc1c(F)ccc2cccc(-c3ncc4c(N(C)[C@@H]5CCN(C(=O)/C=C/c6cc(C)nc(C)n6)C5)nc(OC[C@@]56CCCN5C[C@H](F)C6)nc4c3F)c12 [Example 207, (E)-3-(2,6-dimethylpyrimidin-4-yl)-1-((R)-3-((7-(8-ethynyl-7-fluoronaphthalen-1-yl)-8-fluoro-2-(((2R,7aS)-2-fluorotetrahydro-1H-pyrrolizin-7a(5H)-yl)methoxy)pyrido[4,3-d]pyrimidin-4-yl)(methyl)amino)pyrrolidin-1-yl)prop-2-en-1-one]"

row,SMILES,IC50 [nM]
1,"Cc1nccc(/C=C/C(=O)N2CCC[C@@H](N(C)c3nc(OC[C@@]45CCCN4C[C@H](F)C5)nc4c(F)c(-c5cccc6cccc(Cl)c56)ncc34)C2)n1 [Example 198, (E)-1-((R)-3-((7-(8-chloronaphthalen-1-yl)-8-fluoro-2-(((2R,7aS)-2-fluorotetrahydro-1H-pyrrolizin-7a(5H)-yl)methoxy)pyrido[4,3-d]pyrimidin-4-yl)(methyl)amino)piperidin-1-yl)-3-(2-methylpyrimidin-4-yl)prop-2-en-1-one]",> 500
2,"CN1CC[C@@H]1/C=C/C(=O)N1C[C@H](F)[C@@H](N(C)c2nc(OC[C@@]34CCCN3C[C@H](F)C4)nc3c(F)c(-c4cccc5ccc(F)c(F)c45)ncc23)C1 [Example 199, (E)-1-((3S,4S)-3-((7-(7,8-difluoronaphthalen-1-yl)-8-fluoro-2-(((2R,7aS)-2-fluorotetrahydro-1H-pyrrolizin-7a(5H)-yl)methoxy)pyrido[4,3-d]pyrimidin-4-yl)(methyl)amino)-4-fluoropyrrolidin-1-yl)-3-((R)-1-methylazetidin-2-yl)prop-2-en-1-one]",< 10
3,"C#Cc1c(F)ccc2cccc(-c3ncc4c(N(C)[C@@H]5CCN(C(=O)/C=C/[C@H]6CCN6C)C5)nc(OC[C@@]56CCCN5C[C@H](F)C6)nc4c3F)c12 [Example 200, (E)-1-((R)-3-((7-(8-ethynyl-7-fluoronaphthalen-1-yl)-8-fluoro-2-(((2R,7aS)-2-fluorohexahydro-1H-pyrrolizin-7a-yl)methoxy)pyrido[4,3-d]pyrimidin-4-yl)(methyl)amino)pyrrolidin-1-yl)-3-((R)-1-methylazetidin-2-yl)prop-2-en-1-one]",< 10
4,"C#Cc1c(F)ccc2cccc(-c3ncc4c(N(C)[C@@H]5CCN(C(=O)/C=C/CN(C)C)C5)nc(OC[C@@]56CCCN5C[C@H](F)C6)nc4c3F)c12 [Example 201, (E)-4-(dimethylamino)-1-((R)-3-((7-(8-ethynyl-7-fluoronaphthalen-1-yl)-8-fluoro-2-(((2R,7aS)-2-fluorohexahydro-1H-pyrrolizin-7a-yl)methoxy)pyrido[4,3-d]pyrimidin-4-yl)(methyl)amino)pyrrolidin-1-yl)but-2-en-1-one]",< 10
5,"CN(c1nc(OC[C@@]23CCCN2C[C@H](F)C3)nc2c(F)c(-c3cccc4cccc(Cl)c34)ncc12)[C@@H]1CCN(C(=O)/C=C/c2nc(C3(F)CCC3)no2)C1 [Example 208, (E)-1-((R)-3-((7-(8-chloronaphthalen-1-yl)-8-fluoro-2-(((2R,7aS)-2-fluorotetrahydro-1H-pyrrolizin-7a(5H)-yl)methoxy)pyrido[4,3-d]pyrimidin-4-yl)(methyl)amino)pyrrolidin-1-yl)-3-(3-(1-fluorocyclobutyl)-1,2,4-oxadiazol-5-yl)prop-2-en-1-one]",< 10

# — patent publication US20250019387A1 (Frontier Medicines Corporation, priority 0001, published 2025)
